Data as given in patent US8933224B2, “Triazine derivatives” (Pfizer Inc., priority 2013, dated 2015).
pIC50: −log10 of the molar value.

Target: rat PDE10 enzyme (Rattus norvegicus (Rat), UniProt Q9QYJ6)
Assay: PDE10 scintillation proximity assay (SPA), inhibition of rat PDE10 enzyme activity
Type: biochemical
Conditions: geometric mean of 2-4 determinations unless otherwise indicated (b: ≧5 determinations; c: single determination)
Description: PDE10 activity was measured using a scintillation assay (SPA-based method) similar to that previously described by Seeger, T. F. et al., Brain Research 985 (2003) 113-126. The compounds' relative activity as PDE10 inhibitors was investigated by assaying a fixed amount of enzyme in the presence of the test compound and low substrate concentration (cAMP) such that an IC50 could be determined. […] The assay is performed in a 384-well format with 50 μL assay buffer (50 mM TRIS pH 7.5; 1.3 mM MgCl2; 0.01% Brij) containing enough PDE10 to convert ˜20% of 20 nM ^3H-cAMP, and a range of inhibitors. Reactions are incubated for 30 minutes at 25° C. The addition of 20 μL of 8 mg/ml yttrium silicate SPA beads (PerkinElmer) stops the reaction. The plates are sealed (TopSeal, PerkinElmer) and the beads are allowed to settle for 8 hrs, after which they are read on the Trilux Microbeta overnight. ^1Rat enzyme preparation:^2Human enzyme preparation:
The recombinant Bacmid was isolated and used to transfect sf9 insect cells to generate a viral stock. To generate cell paste for purification, sf21 cells were infected with the virus stock and cells were harvested 72 hours after infection as described in Seeger, T. F. et al., Brain Research 985 (2003) 113-126. Insect cell paste was lysed and after centrifugation, the supernatant was chromatographed on Ni-NTA agarose (Qiagen) followed by Mono Q (GE Healthcare Life Sciences) as described in Seeger, T. F. et al., Brain Research 985 (2003) 113-126.

Sequence of rat PDE10 enzyme (Q9QYJ6 24-794): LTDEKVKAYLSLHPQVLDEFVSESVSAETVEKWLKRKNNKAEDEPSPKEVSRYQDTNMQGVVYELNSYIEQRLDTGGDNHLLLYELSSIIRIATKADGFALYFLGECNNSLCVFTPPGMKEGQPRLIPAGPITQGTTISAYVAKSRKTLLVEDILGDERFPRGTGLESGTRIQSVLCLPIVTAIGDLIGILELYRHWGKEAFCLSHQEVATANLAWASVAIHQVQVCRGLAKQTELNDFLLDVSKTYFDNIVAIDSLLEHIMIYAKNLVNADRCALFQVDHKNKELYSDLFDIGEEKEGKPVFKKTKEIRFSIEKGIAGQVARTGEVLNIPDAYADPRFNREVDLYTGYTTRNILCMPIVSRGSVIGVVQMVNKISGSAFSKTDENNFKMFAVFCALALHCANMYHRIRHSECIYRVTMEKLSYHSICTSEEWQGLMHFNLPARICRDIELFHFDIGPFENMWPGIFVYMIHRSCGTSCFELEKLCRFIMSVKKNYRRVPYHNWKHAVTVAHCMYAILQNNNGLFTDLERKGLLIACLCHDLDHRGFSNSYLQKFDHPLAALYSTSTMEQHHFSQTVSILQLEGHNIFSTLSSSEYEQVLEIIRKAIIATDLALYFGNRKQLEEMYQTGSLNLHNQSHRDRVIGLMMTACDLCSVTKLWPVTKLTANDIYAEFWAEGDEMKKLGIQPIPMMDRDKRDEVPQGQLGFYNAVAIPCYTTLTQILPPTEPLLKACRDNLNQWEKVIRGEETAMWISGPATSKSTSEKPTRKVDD

Cc1nc(-c2ccccc2F)c2c(N3CCc4c(O)nc(C5CCCC5)nc4C3)ncnn12 [Example 160, 2-cyclopentyl-7-[5-(2-fluorophenyl)-7-methylimidazo[5,1-f][1,2,4]triazin-4-yl]-5,6,7,8-tetrahydropyrido[3,4-d]pyrimidin-4-ol]
pIC50: 8.42

Cc1cccc2c1CN(c1ncnn3c(C)nc([C@@H]4CCOC4)c13)CC2 [Example 155, 8-methyl-2-{7-methyl-5-[(3S)-tetrahydrofuran-3-yl]imidazo[5,1-f][1,2,4]triazin-4-yl}-1,2,3,4-tetrahydroisoquinoline]
pIC50: 9.77

Cc1nc(-c2ccccc2F)c2c(N3CCc4nc(C5CC5)oc4C3)ncnn12 [Example 53, 4-(2-cyclopropyl-6,7-dihydro[1,3]oxazolo[5,4-c]pyridin-5(4H)-yl)-5-(2-fluorophenyl)-7-methylimidazo[5,1-f][1,2,4]triazine]
pIC50: 8.75

Cc1nc(-c2ccccc2F)c2c(N3CCc4ncncc4C3)ncnn12 [Example 110, 6-[5-(2-fluorophenyl)-7-methylimidazo[5,1-f][1,2,4]triazin-4-yl]-5,6,7,8-tetrahydropyrido[4,3-d]pyrimidine]
pIC50: 7.70

COc1cc2c(cc1OC)CN(c1ncnn3c(C)nc(C4CCOCC4)c13)CC2 [Example 59, 6,7-dimethoxy-2-[7-methyl-5-(tetrahydro-2H-pyran-4-yl)imidazo[5,1-f][1,2,4]triazin-4-yl]-1,2,3,4-tetrahydroisoquinoline]
pIC50: 8.51

COc1cc2c(cc1OC)CN(c1ncnn3c(C)nc(-c4ccccc4F)c13)CC2 [Example 42, 2-[5-(2-fluorophenyl)-7-methylimidazo[5,1-f][1,2,4]triazin-4-yl]-6,7-dimethoxy-1,2,3,4-tetrahydroisoquinoline]
pIC50: > 8.49

CCc1nn(C)c2c1CN(c1ncnn3c(C)nc(-c4ccc(F)cc4Cl)c13)CC2 [Example 119, 5-(2-chloro-4-fluorophenyl)-4-(3-ethyl-1-methyl-1,4,6,7-tetrahydro-5H-pyrazolo[4,3-c]pyridin-5-yl)-7-methylimidazo[5,1-f][1,2,4]triazine]
pIC50: 9.28

Cc1onc2c1CN(c1ncnn3c(C)nc([C@@H]4CCOC4)c13)CC2 [Example 33, 7-methyl-4-(3-methyl-6,7-dihydro[1,2]oxazolo[4,3-c]pyridin-5(4H)-yl)-5-[(3S)-tetrahydrofuran-3-yl]imidazo[5,1-f][1,2,4]triazine]
pIC50: 7.63

Cc1nn(C)c2c1CN(c1ncnn3c(C)nc(-c4ccccc4F)c13)CC2 [Example 115, 4-(1,3-dimethyl-1,4,6,7-tetrahydro-5H-pyrazolo[4,3-c]pyridin-5-yl)-5-(2-fluorophenyl)-7-methylimidazo[5,1-f][1,2,4]triazine]
pIC50: 9.08

Cc1c2c(nn1C)CCN(c1ncnn3c(C)nc([C@@H]4CCOC4)c13)C2 [Example 101, 4-(2,3-dimethyl-2,4,6,7-tetrahydro-5H-pyrazolo[4,3-c]pyridin-5-yl)-7-methyl-5-[(3S)-tetrahydrofuran-3-yl]imidazo[5,1-f][1,2,4]triazine]
pIC50: 9.55

Cc1nc(-c2ccccc2F)c2c(N3CCc4ncccc4C3)ncnn12 [Example 151, 6-[5-(2-fluorophenyl)-7-methylimidazo[5,1-f][1,2,4]triazin-4-yl]-5,6,7,8-tetrahydro-1,6-naphthyridine]
pIC50: 9.00

Cc1nn(C)c2c1CN(c1ncnn3c(C)nc(-c4ccc(F)cc4Cl)c13)CC2 [Example 121, 5-(2-chloro-4-fluorophenyl)-4-(1,3-dimethyl-1,4,6,7-tetrahydro-5H-pyrazolo[4,3-c]pyridin-5-yl)-7-methylimidazo[5,1-f][1,2,4]triazine]
pIC50: 8.87

CCc1nn(C)c2c1CN(c1ncnn3c(C)nc([C@H]4CCCO4)c13)CC2 [Example 80, 4-(3-ethyl-1-methyl-1,4,6,7-tetrahydro-5H-pyrazolo[4,3-c]pyridin-5-yl)-7-methyl-5-[(2R)-tetrahydrofuran-2-yl]imidazo[5,1-f][1,2,4]triazine]
pIC50: 7.75

CCn1c(C)nc2c(c1=O)CN(c1ncnn3c(C)nc([C@@H]4CCOC4)c13)CC2 [Example 129, 3-ethyl-2-methyl-6-{7-methyl-5-[(3S)-tetrahydrofuran-3-yl]imidazo[5,1-f][1,2,4]triazin-4-yl}-5,6,7,8-tetrahydropyrido[4,3-d]pyrimidin-4(3H)-one]
pIC50: 10.00

Cc1nc(C2CCCO2)c2c(N3CCc4nc(C5CC5)ncc4C3)ncnn12 (centres unmarked) [Example 22, 2-cyclopropyl-6-[7-methyl-5-(tetrahydrofuran-2-yl)imidazo[5,1-f][1,2,4]triazin-4-yl]-5,6,7,8-tetrahydropyrido[4,3-d]pyrimidine]
pIC50: 8.28

CCc1noc2c1CN(c1ncnn3c(C)nc([C@@H]4CCOC4)c13)CC2 [Example 32]
pIC50: 8.43

CNc1ccc2c(n1)CCN(c1ncnn3c(C)nc(-c4ccccc4F)c13)C2 [Example 153, 6-[5-(2-fluorophenyl)-7-methylimidazo[5,1-f][1,2,4]triazin-4-yl]-N-methyl-5,6,7,8-tetrahydro-1,6-naphthyridin-2-amine]
pIC50: 9.36

Cc1nc(C2CCCO2)c2c(N3CCc4c(c(C(C)C)nn4C)C3)ncnn12 (centres unmarked) [Example 45, 4-(3-isopropyl-1-methyl-1,4,6,7-tetrahydro-5H-pyrazolo[4,3-c]pyridin-5-yl)-7-methyl-5-(tetrahydrofuran-2-yl)imidazo[5,1-f][1,2,4]triazine]
pIC50: 8.42

Cc1nc(-c2ccccc2F)c2c(N3CCc4cccnc4C3)ncnn12 [Example 65]
pIC50: 8.53

COc1cc2c(cc1OC)CN(c1ncnn3c(C)nc(-c4ccccc4C)c13)CC2 [Example 62, 6,7-dimethoxy-2-[7-methyl-5-(2-methylphenyl)imidazo[5,1-f][1,2,4]triazin-4-yl]-1,2,3,4-tetrahydroisoquinoline]
pIC50: 8.41

CCc1nc(C2CC2)nc2c1CN(c1ncnn3c(C)nc(-c4ccccc4F)c13)CC2 [Example 136, 2-cyclopropyl-4-ethyl-6-[5-(2-fluorophenyl)-7-methylimidazo[5,1-f][1,2,4]triazin-4-yl]-5,6,7,8-tetrahydropyrido[4,3-d]pyrimidine]
pIC50: 9.58

Cc1c2c(nn1C)CCN(c1ncnn3c(C)nc(-c4ccccc4F)c13)C2 [Example 113]
pIC50: 9.20

Cc1nc(-c2ccccc2F)c2c(N3CCc4c(c(C(C)C)nn4C)C3)ncnn12 [Example 43, 5-(2-fluorophenyl)-4-(3-isopropyl-1-methyl-1,4,6,7-tetrahydro-5H-pyrazolo[4,3-c]pyridin-5-yl)-7-methylimidazo[5,1-f][1,2,4]triazine]
pIC50: 9.33

Cc1nc([C@H]2CCCO2)c2c(N3CCc4nc(C5CC5)ncc4C3)ncnn12 [Example 79]
pIC50: 7.95

CCc1n[nH]c2c1CN(c1ncnn3c(C)nc(C4CCOCC4)c13)CC2 [Example 107, 4-(3-ethyl-1,4,6,7-tetrahydro-5H-pyrazolo[4,3-c]pyridin-5-yl)-7-methyl-5-(tetrahydro-2H-pyran-4-yl)imidazo[5,1-f][1,2,4]triazine]
pIC50: 9.02

COc1ccc2c(n1)CCN(c1ncnn3c(C)nc(-c4ccccc4F)c13)C2 [Example 66, 6-[5-(2-fluorophenyl)-7-methylimidazo[5,1-f][1,2,4]triazin-4-yl]-2-methoxy-5,6,7,8-tetrahydro-1,6-naphthyridine]
pIC50: 8.59

COc1ccc2c(c1)CCN(c1ncnn3c(C)nc([C@H]4CCOC4)c13)C2 [Example 87, 6-methoxy-2-{7-methyl-5-[(3R)-tetrahydrofuran-3-yl]imidazo[5,1-f][1,2,4]triazin-4-yl}-1,2,3,4-tetrahydroisoquinoline]
pIC50: 8.90

Cc1nc(CC(C)C)c2c(N3CCc4ncccc4C3)ncnn12 [Example 97, 6-[7-methyl-5-(2-methylpropyl)imidazo[5,1-f][1,2,4]triazin-4-yl]-5,6,7,8-tetrahydro-1,6-naphthyridine]
pIC50: 8.04

Cc1nc(C2CCOCC2)c2c(N3CCc4[nH]nc(C(C)C)c4C3)ncnn12 [Example 108, 7-methyl-4-(3-(propan-2-yl)-1,4,6,7-tetrahydro-5H-pyrazolo[4,3-c]pyridin-5-yl]-5-(tetrahydro-2H-pyran-4-yl)imidazo[5,1-f][1,2,4]triazine]
pIC50: 9.04

Cc1nc2c(o1)CN(c1ncnn3c(C)nc([C@H]4CCOC4)c13)CC2 [Example 76, 7-methyl-4-(2-methyl-6,7-dihydro[1,3]oxazolo[5,4-c]pyridin-5(4H)-yl)-5-[(3R)-tetrahydrofuran-3-yl]imidazo[5,1-f][1,2,4]triazine]
pIC50: 7.64

Cc1nc([C@H]2CCOC2)c2c(N3CCc4cc(Cl)c(Cl)cc4C3)ncnn12 [Example 51, 6,7-dichloro-2-{7-methyl-5-[(3R)-tetrahydrofuran-3-yl]imidazo[5,1-f][1,2,4]triazin-4-yl}-1,2,3,4-tetrahydroisoquinoline]
pIC50: 7.87

Cc1nc(-c2ccc(F)cc2Cl)c2c(N3CCc4cnn(C)c4C3)ncnn12 [Example 122, 5-(2-chloro-4-fluorophenyl)-7-methyl-4-(1-methyl-1,4,5,7-tetrahydro-6H-pyrazolo[3,4-c]pyridin-6-yl)imidazo[5,1-f][1,2,4]triazine]
pIC50: 8.58
